# Assay results as given in patent US10718028B2, “Fluorescent probes for abasic site detection” (CASE WESTERN RESERVE UIVERSITY, priority 2015, dated 2020).
# Columns and labels:
# [1] = Stability of Cy7MX and Cy7MX-treated samples; format: physicochemical
# [2] = test system: AP sites in calf thymus AP DNA; assay: Genomic DNA time course of Cy7MX binding; conditions: heat/acid treated DNA, 37° C.
# Protocol: Calf thymus DNA was purchased from Sigma and was reconstituted overnight at 4° C. in either H2O or 500 mM MX (to eliminate basal AP sites) with gentle shaking (1.5 mL water or solution per 5 mg DNA). For samples reconstituted in MX solution, an ethanol precipitation was performed twice before heat and acid treatment (vide infra) then reconstituted in water. The DNA-water solution was aliquoted to 1.5 mL Eppendorf tubes (360 μL) and 10× Citrate buffer (1M NaCl, 100 μM monosodium phosphate, 100 μM monosodium citrate, pH 5.0) was added to a final concentration of 1×. For t=0 min samples, ice-cold 100% EtOH (1.0 mL) was added immediately and the Eppendorf tubes stored at −20° C. Other samples were placed in a 70° C. heating block for 15-90 minutes in 15-minute increments. Samples were removed from heat, precipitated in ice-cold 100% EtOH (1.0 mL), and then chilled at −20° C. for at least 20 minutes. Samples were centrifuged at 12,000×G for 10 min at 4° C. The supernatant was discarded. The process was repeated once beginning with the addition of EtOH (1.0 mL). The DNA pellet was dissolved in 700 μL H2O or TE buffer. […]
# A 100 mM stock solution of Cy7MX in DMSO was diluted to 25 μM in H2O. […] Aliquots (125 μL) of the samples were added to a black, clear-bottom 96 well plate (Corning) and analyzed with 750 nm excitation and 800 nm emission. Fluorescence was adjusted to DNA concentration.
# UDG = molecular target: T1, UDG (Escherichia coli, UniProt P12295); assay: SSB activity assay UDG inhibition; format: biochemical; conditions: UDG 10 min pretreatment vs simultaneous UDG and Cy7MX
# T1 construct: purchased New England BioLabs
# T1 sequence (P12295 whole entry): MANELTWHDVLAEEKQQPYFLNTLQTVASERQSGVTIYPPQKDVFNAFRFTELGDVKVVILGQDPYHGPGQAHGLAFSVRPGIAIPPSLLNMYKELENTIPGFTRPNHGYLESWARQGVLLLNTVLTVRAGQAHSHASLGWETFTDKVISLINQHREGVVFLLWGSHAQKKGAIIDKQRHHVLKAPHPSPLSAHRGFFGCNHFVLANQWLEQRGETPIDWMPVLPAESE
# Protocol: FIG. 8 illustrates the evaluation of UDG inhibition by Cy7MX. Time course represents incubation time of U:A DNA before APE addition with UDG alone, 10 minutes UDG pretreatment then Cy7MX, and UDG and Cy7MX without pretreatment.
# Method UDG (10 min)+Cy7MX: All samples were prepared in triplicate.
# Method UDG+Cy7MX: All samples were prepared in triplicate. […] Samples were incubated at 37° C. in the dark for 2 min, 10 min, 30 min, 60 min, or 180 min.
# Method UDG: As in method UDG+Cy7MX except substitute DMSO (2 μL) for Cy7MX.
# Likewise, the potential of Cy7MX to inhibit UDG, either through direct interaction with the enzyme or by binding to DNA and blocking the uracil substrate, was tested. To accomplish this, U:A DNA was incubated with UDG for a fixed time prior to addition of Cy7MX (FIG. 8, UDG (10 min)+Cy7MX). In this case, Cy7MX could not interfere with the activity of UDG.
# [3] = test system: AP sites in calf thymus DNA; assay: MX and Cy7MX genomic DNA blocking assay; format: binding; conditions: not blocked by MX
# Protocol: FIG. 10 illustrates fluorescence response and MX blocking of Cy7MX. Calf thymus DNA treated with heat and acid for increments of 15 min to give a linear relative number of AP sites. AP DNA was then pretreated with MX (50 mM, +MX) or NaCl (50 mM, −MX) followed by incubation with Cy7MX (0.05 mM). Fluorescence measures show a linear response to Cy7MX when not blocked by MX.
# Calf thymus DNA was purchased from Sigma and was reconstituted overnight at 4° C. in either H2O or 500 mM MX (to eliminate basal AP sites) with gentle shaking (1.5 mL water or solution per 5 mg DNA). For samples reconstituted in MX solution, an ethanol precipitation was performed twice before heat and acid treatment (vide infra) then reconstituted in water. The DNA-water solution was aliquoted to 1.5 mL Eppendorf tubes (360 μL) and 10× Citrate buffer (1M NaCl, 100 μM monosodium phosphate, 100 μM monosodium citrate, pH 5.0) was added to a final concentration of 1×. For t=0 min samples, ice-cold 100% EtOH (1.0 mL) was added immediately and the Eppendorf tubes stored at −20° C. […]
# To 80 μL aliquots of DNA was added either 10 μL of MX (500 mM, pH 7) or vehicle control (500 mM NaCl). […] Aliquots (125 μL) of the samples were added to a black, clear-bottom 96 well plate (Corning) and analyzed with 700 nm excitation and 790 nm emission. Fluorescence was adjusted to DNA concentration.
# U:A-paired DNA = assay: SSB activity assay control reactions; format: biochemical
# Protocol: SSB Activity Assay Control Reactions
# Samples were prepared in triplicate.
# After evaluating the fluorescence properties of Cy7MX, its ability to bind to AP sites was examined We developed an assay using a fluorescently tagged dsDNA (double stranded DNA) oligonucleotide with a single uracil incorporated into the labeled strand (FIG. 5A). A green emitting hexachlorofluorescein (HEX) label was incorporated at the 5′ end of the sense strand in order to avoid overlapping with the NIR fluorecent emission of Cy7MX. We expected that treatment of this oligomer with UDG would generate an AP site and subsequent treatment with APE would produce a single strand break. This break could be visualized by denaturing gel electrophoresis to reveal a 16mer single strand DNA (ssDNA) instead of the 40mer parent (FIG. 5B). However, we hypothesized that if the oligomer were treated with Cy7MX prior to APE treatment, the covalent Cy7MX:AP site lesion would not be recognized by APE as a substrate and no SSB would form.
compound,measurement,setting,value
"CCCN1/C(=C/C=C2\CCCC(/C=C/C3=[N+](CCC)c4ccccc4C3(C)C)=C2Oc2ccc(CC(=O)NCCCON)cc2)C(C)(C)c2ccccc21 [Cy7MX, 2-((E)-2-((E)-2-(4-(2-((3-(aminooxy)propyl)amino)-2-oxoethyl)phenoxy)-3-((E)-2-(3,3-dimethyl-1-propylindolin-2-ylidene)ethylidene)cyclohex-1-en-1-yl)vinyl)-3,3-dimethyl-1-propyl-3H-indol-1-ium 2,2,2-trifluoroacetate]",stability of Cy7MX with MX,"[1]; in the presence of light, MX solutions",decompose Cy7MX rapidly
same,stability of Cy7MX assay samples,[1]; stored in the dark,stable for at least two days
same,time to complete reaction,[2],approximately 10 min
same,UDG inhibition,UDG,does not inhibit UDG activity
same,fluorescence intensity versus DNA heat/acid treatment time,[3],linear relationship
same,SSB activity of the probe itself,U:A-paired DNA; U:A-paired DNA treated with Cy7MX alone (no enzymes),no SSB activity
same,SSB activity,U:A-paired DNA; U:A-paired DNA with Cy7MX together with UDG and APE,the SSB activity was reduced
